Measured values taken from patent publication US20190142810A1, “MITOCHONDRIAL INHIBITORS FOR THE TREATMENT OF PROLIFERATION DISORDERS” (Basilea Pharmaceutica International AG, priority 2016, published 2019).

Key:
Type in all cases: cell-based
[1] = test system: HeLa galactose cells; assay: Cell growth and proliferation assay of HeLa galactose cells (crystal violet); details: Homo sapiens, HeLa, 72 h, 72 hours incubation, crystal violet staining, absorbance at 590 nm
Summary of the method: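 HeLa cells adapted stepwise over three weeks to glucose-free galactose medium plus 10 mM galactose, seeded at 2000 cells/well and treated 72 h with compounds (0.001% DMSO) at 37° C. Growth read by crystal violet staining, dye solubilized and absorbance at 590 nm; IC50 from concentration-response curves.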

[2] = test system: Oxygen consumption (mitochondrial function); assay: Oxygen consumption assay (MitoXpress probe); details: 5 h, MitoXpress probe signal, kinetic analysis at 37° C. for 5 hours, compared to untreated cells
Summary of the method: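 Cells seeded at 50′000/well, after 24 h given fresh media with inhibitor at a range of concentrations, then MitoXpress probe under mineral oil. Kinetic TRF read (380 nm excitation, 650 or 665 nm emission) at 37° C. for 5 hours. IC50 = concentration inhibiting 50% of probe signal versus untreated cells.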

[3] = test system: HeLa glucose versus HeLa galactose cells; assay: Cell growth assays (crystal violet) in HeLa galactose and HeLa glucose cells; details: FIG. 1, crystal violet cell growth assay
Protocol: The cervical tumor cell line HeLa (ATCC, CCL-2) was cultivated in DMEM medium (Invitrogen cat. no. 11971, 4.5 g/L high glucose) containing 10% fetal calf serum (Sigma cat. no. F9665) and 1% Penicillin/Streptomycin (Sigma cat. no. P0781) at 37° C. in 5% CO2. HeLa galactose cells (i.e. HeLa cells that grow in high concentrations of galactose) were generated from HeLa glucose cells (i.e. HeLa cells that grow in high concentrations of glucose) by gradually changing the amount of glucose in the media to zero glucose in the presence of galactose as a sugar source (50% galactose/50% glucose media for one week, then 75% galactose/25% glucose media for one week, to 100% galactose media in the third week). Galactose media (Invitrogen cat. no. 11966) was supplemented with 10 mM galactose (Sigma cat. no. G5388).
Cell Growth and Proliferation Assay of HeLa Galactose and Glucose Cells
HeLa galactose cells and HeLa glucose cells were seeded in 96 well plates (TPP, cat. no 92696) at 2000 and 1500 cells/well, respectively, in 100 μL of complete medium. […] Absorbance at 590 nm was measured using a SpectraMax® 250 plate reader (Molecular Devices). Antiproliferative/growth inhibition IC50s were calculated from concentration-response curves using GraphPad Prism software. […]

Row | Compound | IC50 [1] [nM] | IC50 [2] [nM] | differential sensitivity in HeLa glucose versus HeLa galactose cell growth [3]
1 | Cc1nsc(NC(=O)N2CCC(=Cc3c(F)cc(C(F)(F)F)cc3F)CC2)n1 [Example 41, 4-[[2,6-difluoro-4-(trifluoromethyl)phenyl]methylene]-N-(3-methyl-1,2,4-thiadiazol-5-yl)piperidine-1-carboxamide] | 23 | 41 | exhibit differential sensitivity
2 | Cc1cc(NC(=O)N2CCC(=Cc3c(F)cc(N(C)C)cc3F)CC2)sn1 [Example 148, 4-[[4-(dimethylamino)-2,6-difluoro-phenyl]methylene]-N-(3-methylisothiazol-5-yl)piperidine-1-carboxamide] | 9 | 16 | –
3 | CCc1nsc(NC(=O)N2CCC(=Cc3c(F)cc(N(C)C)cc3F)CC2)n1 [Example 149, 4-[[4-(dimethylamino)-2,6-difluoro-phenyl]methylene]-N-(3-ethyl-1,2,4-thiadiazol-5-yl)piperidine-1-carboxamide] | 11 | 13 | –
4 | Cc1cc(NC(=O)N2CCC(Cc3c(F)cc(N(C)C)cc3F)CC2)sn1 [Example 151, 4-[[4-(dimethylamino)-2,6-difluoro-phenyl]methyl]-N-(3-methylisothiazol-5-yl)piperidine-1-carboxamide] | 20 | 42 | –
5 | CCc1nsc(NC(=O)N2CCC(Cc3c(F)cc(N(C)C)cc3F)CC2)n1 [Example 152, 4-[[4-(dimethylamino)-2,6-difluoro-phenyl]methyl]-N-(3-ethyl-1,2,4-thiadiazol-5-yl)piperidine-1-carboxamide] | 19 | 39 | –
6 | Cc1cc(NC(=O)N2CCC(Cc3c(F)cc(N(C)C)cc3F)CC2)ccn1 [Example 153] | 34 | 119 | –
7 | Cc1cc(NC(=O)N2CCC(=Cc3c(F)cc(N(C)C)cc3F)CC2)ccn1 [Example 154] | 37 | 192 | –
8 | Cc1nsc(NC(=O)N2CCC(=Cc3c(F)cc(N(C)C4CCOC4)cc3F)CC2)n1 (stereo not drawn) [Example 157] | 51 | 109 | –
9 | Cc1nsc(NC(=O)N2CCC(=Cc3c(F)cc(N(C)CCO)cc3F)CC2)n1 [Example 158, 4-[[2,6-difluoro-4-[2-hydroxyethyl(methyl)amino]phenyl]methylene]-N-(3-methyl-1,2,4-thiadiazol-5-yl)piperidine-1-carboxamide] | 28 | 40 | –
10 | COC1CN(Cc2ccc(Cl)cc2F)CCN(C(=O)Nc2nc(C)ns2)C1 (stereo not drawn) [Example 160, 4-[(4-chloro-2-fluoro-phenyl)methyl]-6-methoxy-N-(3-methyl-1,2,4-thiadiazol-5-yl)-1,4-diazepane-1-carboxamide] | 21 | 65 | –
11 | Cc1nsc(NC(=O)N2CCC(=Cc3c(F)cc(N(C)CC4CN(C)C4)cc3F)CC2)n1 [Example 161] | 50 | 159 | –
12 | Cc1nsc(NC(=O)N2CCC(=Cc3c(F)cc(N(C)CC#N)cc3F)CC2)n1 [Example 164, 4-[[4-[cyanomethyl(methyl)amino]-2,6-difluoro-phenyl]methylene]-N-(3-methyl-1,2,4-thiadiazol-5-yl)piperidine-1-carboxamide] | 19 | 16 | –
13 | Cc1cc(NC(=O)N2CCC(C(=O)c3c(F)cc(C(F)(F)F)cc3F)CC2)ccn1 [Example 173] | 54 | 136 | –
14 | COCc1cc(NC(=O)N2CCC(=Cc3ccc(Cl)cc3F)CC2)ccn1 [Example 176] | 54 | 133 | –
15 | CCc1cc(NC(=O)N2CCC(=Cc3c(F)cc(C#N)cc3F)CC2)ccn1 [Example 179, 4-[(4-cyano-2,6-difluoro-phenyl)methylene]-N-(2-ethyl-4-pyridyl)piperidine-1-carboxamide] | 11 | 41 | –
16 | N#Cc1cc(F)c(C=C2CCN(C(=O)Nc3ccnc(C4CC4)c3)CC2)c(F)c1 [Example 182, 4-[(4-cyano-2,6-difluoro-phenyl)methylene]-N-(2-cyclopropyl-4-pyridyl)piperidine-1-carboxamide] | 13 | 108 | –
17 | O=C(Nc1ccnc(C2CC2)c1)N1CCC(=Cc2ccc(Cl)cc2F)CC1 [Example 183, 4-[(4-chloro-2-fluoro-phenyl)methylene]-N-(2-cyclopropyl-4-pyridyl)piperidine-1-carboxamide] | 21 | 42 | –
18 | Antimycin A | – | – | differential sensitivity in HeLa glucose versus HeLa galactose cell growth is exhibited
